{"source": "patent US20140100419A1", "about": "“ACTIVE VITAMIN D OR ANALOGS THEREOF FOR USE IN IN VIVO OR IN VITRO FERTILIZATION” (priority 2011, published 2014)", "system": "human spermatozoa", "test": "Intracellular calcium [Ca2+]i in fura-2 loaded human spermatozoa", "type": "cell-based", "procedure": "Calcium measurements and the acrosome reaction were performed on motile spermatozoa isolated after percoll density gradient centrifugation (Supra sperm gradients, (ORIGO)) following the manufacturer's instructions. Briefly, spermatozoa were separated from seminal plasma by centrifugation on a discontinuous percoll gradient using a two-step gradient comprising 2 ml layers of 55% and 80% percoll respectively. Semen was placed on the top of the gradient and centrifuged at 300×g for 25 min. The spermatozoa at the base of the 80% fraction were collected and washed with a 5 ml volume of capacitating medium (CaCl2 1.5 mM, KCl 4.3 mM, NaHCO3 31 mM, HEPES 15 mM, Human Serum Albumin 5 mg/ml, Glucose 4.5 mM, Sodium Pyruvate 0.8 mM, Synthetic Serum Replacement, 0.5 ug/ml human recombinant insulin (Sperm preparation media (ORIGO)) and finally resuspended in capacitating media and used for the following assays of calcium measurements and acrosome reaction. All men were part of the above mentioned ongoing surveillance program of semen quality among young Danish men and included after approval from the local ethical committee (No. H-4-2010-016).\nSemen samples were separated by percoll density gradient centrifugation to ensure viable and motile spermatozoa and resuspended in capacitating media for 1.5 hours. Afterwards, loaded with 3 μM of the fluorescent probe (intracellular calcium binding) fura-2/AM (Invitrogen, USA) for 30 min, centrifuged (10 min at 300 g) and washed with Krebs-Ringer buffer (120 mM NaCl, 15 mM NaHCO3, 5 mM KCl, 1 mM CaCl2, 5 mM Na2HPO4, 1 mM MgCl2 pH 7.3). […] Subsequently, 80 μl of the sperm sample was diluted in 920 μl Krebs-Ringer buffer and loaded on polylysine-coated chambers to minimize movement of the spermatozoa (Lab-Tek; Nalge Nunc International, USA). A Zeiss Axiovert 135 microscope equipped with a Zeiss Achrostigmat 40×1.3 NA objective was used to acquire images from the fluorescent probe. Excitation was obtained by a Polychrome Villuminator from Till Photonics (Germany) and images were acquired using a Cool Snap CCD camera (Photometrics, USA) from Robert Scientific (Malaysia). For measurements of [Ca2+]i, the excitation wavelengths were 338 and 380 nm, measuring emission above 510 nm using a cut-off filter. […] After background subtraction, ratio images were formed using MetaFluor software.\nAll experiments started by using low magnification to ensure visibility of several spermatozoa simultaneously. […] All measurements of [Ca^2+], were based upon evaluation of at least three spermatozoa simultaneously (see exact number in figure legends), and were repeated in at least three separate experiments. We used 10 different semen donors to ensure that all experiments were reproduced on semen samples from at least two different men.", "data": [{"smiles": "C=C1/C(=C\\C=C2/CCC[C@]3(C)[C@@H]([C@H](C)CCCC(C)(C)O)CC[C@@H]23)C[C@@H](O)C[C@H]1O", "note": "[1β,25(OH)2D3, 1β,25-(OH)2D3]", "values": [{"measurement": "effect on calcium effect of progesterone", "setting": "Example 4", "value": "did not abrogate"}, {"measurement": "effect on calcium response to 1,25(OH)2D3", "setting": "Example 4, non-genomic competitive antagonist", "value": "abrogated the response to 1,25(OH)2D3 completely"}, {"measurement": "effect of pretreatment on calcium response to 1,25(OH)2D3 (VD response)", "setting": "pretreatment with 1-40 μM 1β,25(OH)2D3", "value": "blocked completely"}]}, {"smiles": "C=C1CC[C@H](O)C/C1=C/C=C1\\CCC[C@]2(C)[C@@H]([C@H](C)CCCC(C)(C)O)CC[C@@H]12", "note": "[25-OH D3, 25-OH Vitamin D3]", "values": [{"measurement": "increase in [Ca2+]i", "setting": "25-OH D3 100 nM", "value": "unable to elicit an increase"}, {"measurement": "increase of [Ca2+]i", "setting": "Example 4, 25-OHD3 in the nanomolar range", "value": "unable to increase [Ca^2+], substantially"}, {"measurement": "increase of [Ca2+]i", "setting": "Example 4, higher concentrations of 25-OHD3 (1 μM, FIG. 7)", "value": "marked but delayed increase"}]}, {"smiles": "C[C@H](CCC(=O)O)C[C@H](C)C[C@H](C)C(=O)/C=C(\\O)[C@H](C)C[C@H](C)C/C=C/[C@@H](C)[C@@H](O)[C@@H](C)[C@@H](O)C[C@@H]1CC[C@@](C)([C@H]2CC[C@@](C)([C@@H](C)O)O2)O1", "note": "[Ionomycin, ionomycin]", "values": [{"measurement": "amplitude of calcium response from baseline", "setting": "ionomycin 500 nM, calcium free media with EGTA", "value": "< 3", "unit": "fold"}]}, {"smiles": "COc1ccc2c(c1)CC[C@@H]1[C@@H]2CC[C@]2(C)[C@@H](NCCCCCCN3C(=O)C=CC3=O)CC[C@@H]12", "note": "[U73122, 1-[6-[[17fi-3-methoxyestra-1,3,5(10)-trien-17-yl]amino]hexyl]-lH-pyrrole-2,5-dione]", "values": [{"measurement": "increase of baseline [Ca2+]i", "setting": "10 μM U73122", "value": "more than 5 fold"}, {"measurement": "proportion of spermatozoa with increased baseline [Ca2+]i", "setting": "10 μM U73122", "value": "> 80", "unit": "%"}, {"measurement": "effect of PLC inhibition on the effect of progesterone", "setting": "U73122, data not shown", "value": "unable to abrogate"}]}, {"smiles": "C=C1/C(=C\\C=C2/CCC[C@]3(C)[C@@H]([C@H](C)/C=C/[C@@H](O)C4(C(=O)OCCCC)CC4)CC[C@@H]23)C[C@@H](O)C[C@@H]1O", "note": "[ZK159222]", "values": [{"measurement": "effect on calcium increase by 1,25(OH)2D3", "setting": "Example 4, pre-treatment with 100 nM ZK159222 (FIG. 5)", "value": "unable to influence"}, {"measurement": "effect of antagonist on calcium response to 1,25(OH)2D3", "setting": "ZK159222 0.1-100 μM, data not shown", "value": "unable to abrogate or suppress"}]}, {"smiles": "CC(=O)[C@H]1CC[C@H]2[C@@H]3CCC4=CC(=O)CC[C@]4(C)[C@H]3CC[C@]12C", "note": "[progesterone]", "values": [{"measurement": "time until calcium level restored to baseline after initiation of treatment", "setting": "10 μM progesterone after nifedipine 10 μM pretreatment", "value": 9, "unit": "min"}, {"measurement": "increase in [Ca2+]i", "setting": "calcium free media with 5 μM EGTA", "value": "could not induce an increase"}, {"measurement": "increase in [Ca2+]i after addition of 1 mM calcium", "setting": "calcium free media, calcium added after treatment", "value": "comparable to the increase observed in the normal calcium containing Krebs Ringer solution"}]}, {"smiles": "C/C=C(/C)C(=O)O[C@H]1C(C)=C2[C@H]([C@@H]1OC(=O)CCCCCCC)[C@@](C)(OC(C)=O)C[C@H](OC(=O)CCC)[C@@]1(O)[C@H]2OC(=O)[C@@]1(C)O", "note": "[thapsigargin]", "values": [{"measurement": "stable plateau of calcium concentration versus baseline", "setting": "thapsigargin 4 μM, nine minutes after exposure", "value": 3, "unit": "fold"}, {"measurement": "effect on calcium response to 1,25(OH)2D3", "setting": "thapsigargin <1 μM", "value": "unable to abrogate"}]}]}
